CC1(C)CO[P+]([O-])(Oc2c(Br)cc(Br)cc2Br)OC1
solubility (mole fraction) (in THF, 293.15 K): 0.024 | solubility (mole fraction) (in THF, 298.15 K): 0.0258 | solubility (mole fraction) (in THF, 303.15 K): 0.0303 | solubility (mole fraction) (in THF, 308.15 K): 0.0329 | solubility (mole fraction) (in THF, 313.15 K): 0.0374 | solubility (mole fraction) (in THF, 318.15 K): 0.0409 | solubility (mole fraction) (in THF, 323.15 K): 0.0448 | solubility (mole fraction) (in acetone, 293.15 K): 0.0131 | solubility (mole fraction) (in acetone, 298.15 K): 0.0153 | solubility (mole fraction) (in acetone, 303.15 K): 0.0171 | solubility (mole fraction) (in acetone, 308.15 K): 0.0194 | solubility (mole fraction) (in acetone, 313.15 K): 0.0226 | solubility (mole fraction) (in acetone, 318.15 K): 0.0254 | solubility (mole fraction) (in acetone, 323.15 K): 0.0295 | solubility (mole fraction) (in acetonitrile, 293.15 K): 0.00399 | solubility (mole fraction) (in acetonitrile, 298.15 K): 0.00504 | solubility (mole fraction) (in acetonitrile, 308.15 K): 0.00755 | solubility (mole fraction) (in acetonitrile, 313.15 K): 0.00936 | solubility (mole fraction) (in acetonitrile, 323.15 K): 0.0128 | solubility (mole fraction) (in acetonitrile, 333.15 K): 0.0184 | solubility (mole fraction) (in acetonitrile, 343.15 K): 0.0265 | solubility (mole fraction) (in chloroform, 288.15 K): 0.0801 | solubility (mole fraction) (in chloroform, 293.15 K): 0.0844 | solubility (mole fraction) (in chloroform, 298.15 K): 0.0882 | solubility (mole fraction) (in chloroform, 303.15 K): 0.0947 | solubility (mole fraction) (in chloroform, 308.15 K): 0.1 | solubility (mole fraction) (in chloroform, 313.15 K): 0.106 | solubility (mole fraction) (in chloroform, 318.15 K): 0.113 | solubility (mole fraction) (in chloroform, 328.15 K): 0.124 | solubility (mole fraction) (in dichloromethane, 288.15 K): 0.0492 | solubility (mole fraction) (in dichloromethane, 293.15 K): 0.0546 | solubility (mole fraction) (in dichloromethane, 298.15 K): 0.0594 | solubility (mole fraction) (in dichloromethane, 303.15 K): 0.0653 | solubility (mole fraction) (in dichloromethane, 308.15 K): 0.0712 | solubility (mole fraction) (in ethanol, 293.15 K): 0.0025 | solubility (mole fraction) (in ethanol, 298.15 K): 0.00298 | solubility (mole fraction) (in ethanol, 303.15 K): 0.00358 | solubility (mole fraction) (in ethanol, 308.15 K): 0.00414 | solubility (mole fraction) (in ethanol, 313.15 K): 0.00465 | solubility (mole fraction) (in ethanol, 318.15 K): 0.00556 | solubility (mole fraction) (in ethanol, 323.15 K): 0.00643 | solubility (mole fraction) (in ethanol, 333.15 K): 0.00795 | solubility (mole fraction) (in ethyl acetate, 293.15 K): 0.00497 | solubility (mole fraction) (in ethyl acetate, 298.15 K): 0.00564 | solubility (mole fraction) (in ethyl acetate, 308.15 K): 0.00748 | solubility (mole fraction) (in ethyl acetate, 313.15 K): 0.00853 | solubility (mole fraction) (in ethyl acetate, 318.15 K): 0.00951 | solubility (mole fraction) (in ethyl acetate, 323.15 K): 0.0111 | solubility (mole fraction) (in ethyl acetate, 328.15 K): 0.0127 | solubility (mole fraction) (in ethyl acetate, 333.15 K): 0.0143 | solubility (mole fraction) (in methanol, 293.15 K): 0.00195 | solubility (mole fraction) (in methanol, 298.15 K): 0.0024 | solubility (mole fraction) (in methanol, 303.15 K): 0.00296 | solubility (mole fraction) (in methanol, 308.15 K): 0.00354 | solubility (mole fraction) (in methanol, 313.15 K): 0.00424 | solubility (mole fraction) (in methanol, 323.15 K): 0.00614 | solubility (mole fraction) (in methanol, 333.15 K): 0.0081 | solubility (mole fraction) (in methyl acetate, 288.15 K): 0.0053 | solubility (mole fraction) (in methyl acetate, 293.15 K): 0.00649 | solubility (mole fraction) (in methyl acetate, 298.15 K): 0.00765 | solubility (mole fraction) (in methyl acetate, 303.15 K): 0.00867 | solubility (mole fraction) (in methyl acetate, 308.15 K): 0.0107 | solubility (mole fraction) (in methyl acetate, 313.15 K): 0.0119 | solubility (mole fraction) (in methyl acetate, 318.15 K): 0.0138 | solubility (mole fraction) (in methyl acetate, 323.15 K): 0.0163 | solubility (mole fraction) (in toluene, 293.15 K): 0.00784 | solubility (mole fraction) (in toluene, 298.15 K): 0.009 | solubility (mole fraction) (in toluene, 303.15 K): 0.0103 | solubility (mole fraction) (in toluene, 313.15 K): 0.0145 | solubility (mole fraction) (in toluene, 323.15 K): 0.0195 | solubility (mole fraction) (in toluene, 333.15 K): 0.0268 | solubility (mole fraction) (in toluene, 343.15 K): 0.0349

— BigSolDB 2.1
